In ChEMBL document CHEMBL5512667, “Discovery of Potent, Selective, and Orally Available IRE1α Inhibitors Demonstrating Comparable PD Modulation to IRE1 Knockdown in a Multiple Myeloma Model” (J Med Chem, 2024):
Converted amounts (≈) assume the structure as drawn. Each block holds one compound with its values, some of them ahead of it. The source made the active and inactive calls. The rule behind the calls is not given here.

How the values were obtained:
[1] = biological target: T1, Serine/threonine-protein kinase/endoribonuclease IRE1 (Homo sapiens, UniProt O75460); assay: Inhibition of His-tagged IRE1alpha (G547 to L977 residues) (unknown origin) expressed in Sf9 cells preincubated with anti-His Europium labeled antibody for 1 hr prior to compound addition followed by tracer 236 addition and measured after 1 hr by TR-FRET assay
Target sequence in this assay (O75460 whole entry, the tested form may be a part): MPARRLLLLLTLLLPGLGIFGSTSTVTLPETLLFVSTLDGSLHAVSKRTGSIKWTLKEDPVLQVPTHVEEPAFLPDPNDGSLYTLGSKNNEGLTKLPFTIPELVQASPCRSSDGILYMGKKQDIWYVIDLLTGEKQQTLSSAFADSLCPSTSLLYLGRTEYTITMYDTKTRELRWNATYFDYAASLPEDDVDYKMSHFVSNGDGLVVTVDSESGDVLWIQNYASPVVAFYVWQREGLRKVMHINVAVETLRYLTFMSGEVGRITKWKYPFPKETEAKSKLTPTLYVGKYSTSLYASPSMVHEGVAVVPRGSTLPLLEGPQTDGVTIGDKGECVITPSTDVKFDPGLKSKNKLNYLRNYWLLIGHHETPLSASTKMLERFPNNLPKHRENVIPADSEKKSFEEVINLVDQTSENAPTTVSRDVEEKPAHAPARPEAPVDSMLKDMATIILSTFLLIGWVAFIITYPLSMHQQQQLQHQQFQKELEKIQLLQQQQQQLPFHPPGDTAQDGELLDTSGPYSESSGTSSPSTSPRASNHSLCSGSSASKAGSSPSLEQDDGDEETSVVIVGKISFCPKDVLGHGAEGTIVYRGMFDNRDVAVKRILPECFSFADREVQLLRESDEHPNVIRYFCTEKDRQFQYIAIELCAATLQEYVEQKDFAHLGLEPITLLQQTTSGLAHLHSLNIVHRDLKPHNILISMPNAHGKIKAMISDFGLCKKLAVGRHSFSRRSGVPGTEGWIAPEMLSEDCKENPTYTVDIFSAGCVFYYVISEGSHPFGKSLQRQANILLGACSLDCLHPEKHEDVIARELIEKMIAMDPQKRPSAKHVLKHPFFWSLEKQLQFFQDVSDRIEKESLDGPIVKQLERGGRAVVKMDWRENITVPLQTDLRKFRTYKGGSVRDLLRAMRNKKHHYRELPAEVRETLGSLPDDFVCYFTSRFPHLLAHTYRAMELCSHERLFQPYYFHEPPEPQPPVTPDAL

[2] = biological target: T1, Serine/threonine-protein kinase/endoribonuclease IRE1; assay: Inhibition of IRE1alpha RNase activity (unknown origin) using XBP1 as substrate preincubated for 1 hr followed by thapsigargin stimulation for 5 hrs by One-Glo luciferase reagent based luminescence assay
Target sequence in this assay (O75460 whole entry, the tested form may be a part): as above

[3] = biological target: T1, Serine/threonine-protein kinase/endoribonuclease IRE1; assay: Inhibition of IRE1alpha RNase activity (Q470 to L977 residues) (unknown origin) expressed in Sf9 cells using mini-XBP-1 stem-loop RNA as substrate measured every 2 mins interval for 50 mins by FRET assay
Target sequence in this assay (O75460 whole entry, the tested form may be a part): as above

[4] = Bioavailability in CD-1 mouse at 10 mg/kg, po or 1 mg/kg, iv measured upto 24 hrs by LC-MS/MS analysis; assay type: ADME, organism-based; settings: in vivo
[5] = Volume of distribution at steady state in CD-1 mouse at 10 mg/kg, po or 1 mg/kg, iv measured upto 24 hrs by LC-MS/MS analysis; assay type: ADME, organism-based; settings: in vivo
[6] = Apparent permeability across apical to basolateral side in MDCK cells at 10 uM incubated for 3 hrs by LC-MS/MS method; assay type: ADME, cell-based, Canis lupus familiaris; settings: dog
[7] = Kinetic solubility of compound at pH 7.4; assay type: physicochemical; settings: buffer, read-out: Kinetic_solubility
[8] = Plasma protein binding in mouse incubated for 4 hrs by LC-MS/MS based rapid equilibrium dialysis method; assay type: ADME, cell-free; settings: read-out: PPB (converted)
[9] = Half-life in CD-1 mouse at 10 mg/kg, po or 1 mg/kg, iv measured upto 24 hrs by LC-MS/MS analysis; assay type: ADME, organism-based; settings: in vivo
[10] = Cmax in Sprague-Dawley rat at 500 mg/kg, po administered twice daily for 7 days; assay type: ADME, organism-based; settings: in vivo, time 7 day
[11] = AUC in Sprague-Dawley rat at 500 mg/kg, po administered twice daily for 7 days; assay type: ADME, organism-based; settings: in vivo, time 7 day
Mus musculus [12] = assay: In vivo inhibition of IRE1alpha in SCID mouse xenografted with human KMS-11 cells assessed as suppression of XBP1 level in tumor at 250 mg/kg, po BID measured upto 12 hrs; assay type: functional, organism-based
[13] = AUC in Sprague-Dawley rat at >= 150 mg/kg, po administered twice daily for 7 days; assay type: ADME, organism-based; settings: in vivo, time 7 day
[14] = Toxicity in Sprague-Dawley rat assessed as decrease in thymus weight at 500 mg/kg, po administered twice daily for 7 days; assay type: organism-based; settings: in vivo, 168 h, time 7 day
[15] = Selectivity ratio of inhibition of HIPK4 (unknown origin) to inhibition of IRE1alpha (unknown origin)
[16] = biological target: T1, Serine/threonine-protein kinase/endoribonuclease IRE1; assay: Inhibition of IRE1alpha in human KMS-11 cells assessed as reduction in XBP1 splicing preincubated for 24 hrs followed by thapsigargin addition and measured after 30 mins by luminescence assay; assay type: cell-based
[17] = Toxicity in Sprague-Dawley rat assessed as increase in hepatic enzyme level at 500 mg/kg, po administered twice daily for 7 days; assay type: organism-based; settings: in vivo, 168 h, time 7 day
Mus musculus [18] = assay: In vivo inhibition of IRE1alpha in SCID mouse xenografted with human KMS-11 cells assessed as suppression of XBP1 level in tumor at 250 mg/kg, po BID measured after 16 to 24 hrs; assay type: functional, organism-based; settings: time 16-24 hrs
[19] = Toxicity in Sprague-Dawley rat assessed as tolerability upto 500 mg/kg, po administered twice daily for 7 days; assay type: organism-based; settings: in vivo, 168 h, time 7 day
[20] = Cmax in Sprague-Dawley rat at >= 150 mg/kg, po administered twice daily for 7 days; assay type: ADME, organism-based; settings: in vivo, time 7 day
[21] = biological target: T1, Serine/threonine-protein kinase/endoribonuclease IRE1; assay: Inhibition of IRE1alpha RNase activity (unknown origin) using XBP1 as substrate preincubated for 1 hr followed by thapsigargin stimulation for 5 hrs under FCS medium by One-Glo luciferase reagent based luminescence assay
Target sequence in this assay (O75460 whole entry, the tested form may be a part): as above

[22] = biological target: T1, Serine/threonine-protein kinase/endoribonuclease IRE1; assay: Inhibition of IRE1alpha in human KMS-11 cells assessed as reduction in XBP1 splicing preincubated for 24 hrs followed by thapsigargin addition and measured after 30 mins under FCS medium by luminescence assay; assay type: cell-based
[23] = Toxicity in Sprague-Dawley rat assessed as hepatocellular hypertrophy at >= 150 mg/kg, po administered twice daily for 7 days; assay type: organism-based; settings: in vivo, 168 h, time 7 day
[24] = Toxicity in Sprague-Dawley rat assessed as decrease in thymic lymphoid depletion at 500 mg/kg, po administered twice daily for 7 days; assay type: organism-based; settings: in vivo, 168 h, time 7 day
[25] = Toxicity in Sprague-Dawley rat assessed as increase in hepatic weight at >= 150 mg/kg, po administered twice daily for 7 days; assay type: organism-based; settings: in vivo, 168 h, time 7 day

SMILES: Cc1ccc2c(NS(=O)(=O)c3ccccc3Cl)cccc2c1Oc1ncccc1-c1ccnc(N[C@H]2CCCN(CC(F)(F)F)C2)n1
IC50 [1]: > 1000 nM | IC50 [2]: 28000 nM | IC50 [3]: > 10000 nM

SMILES: Cc1ccc2c(NS(=O)(=O)CC3CCCCC3)cccc2c1Oc1ncccc1-c1ccnc(N[C@H]2CCCNC2)n1
IC50 [1]: 2.1 nM | IC50 [2]: 1300 nM | IC50 [3]: 24 nM

SMILES: Cc1cc(NS(=O)(=O)Cc2ccccc2)ccc1Oc1ncccc1-c1ccnc(N[C@H]2CCCNC2)n1
IC50 [1]: 29 nM | IC50 [2]: 4400 nM | IC50 [3]: 170 nM

SMILES: Cc1ccc2c(NS(=O)(=O)c3ccccc3Cl)cccc2c1Oc1ncccc1-c1ccnc(N)n1
IC50 [1]: > 1000 nM | IC50 [2]: 32000 nM | IC50 [3]: > 10000 nM

SMILES: O=S(=O)(Cc1ccccc1)Nc1c(F)cc(Oc2ncccc2-c2ccnc(N[C@@H]3CNC[C@@H](F)C3)n2)c(F)c1F
Cmax [10]: 104 µg/mL | AUC at 168 h [11]: 909 µg·h/mL | bioavailability [4]: 149% | inhibition (Mus musculus [12]): Active | AUC at 168 h [13]: 170 µg·h/mL | Vdss [5]: 1.05 L/kg | IC50 [1]: 0.27 nM | Activity [14]: Toxic | Selectivity ratio [15]: 83 | IC50 [16]: 64 nM | IC90 ([16]; time 24.5 hrs): 650 nM | Activity [17]: Toxic | inhibition (Mus musculus [18]): inactive | IC50 [2]: 32 nM | Papp A→B at 3 h, 10 µM [6]: 8.7 ×10⁻⁶ cm/s | Activity [19]: Non-Toxic | Cmax [20]: 28.9 µg/mL | IC50 [21]: 4 nM | solubility kinetic [7]: 65 µM (≈ 38.3 µg/mL) | IC50 [3]: 4.3 nM | fraction unbound at 4 h [8]: 0.029 | IC50 [22]: 8 nM | IC90 ([22]; time 24.5 hrs): 79 nM | Activity [23]: Toxic | half-life [9]: 0.55 h | Activity [24]: Toxic | Activity [25]: Toxic

SMILES: Cc1ccc2c(NS(=O)(=O)c3ccccc3Cl)cccc2c1Oc1ncccc1-c1ccnc(NC2CCC(=O)NC2)n1 (stereo not given)
IC50 [1]: 65 nM | IC50 [2]: 9000 nM | IC50 [3]: 2100 nM

SMILES: O=S(=O)(Cc1ccccc1)Nc1ccc(Oc2ncccc2-c2ccnc(N[C@H]3CCCNC3)n2)c(F)c1F
IC50 [1]: 0.98 nM | IC50 [2]: 88 nM | Papp A→B at 3 h, 10 µM [6]: 2.1 ×10⁻⁶ cm/s | IC50 [3]: 2.9 nM

SMILES: Cc1ccc(CNC(=O)N2CCC[C@]3(CCN(Cc4ccc(Cl)c(Cl)c4)C3)C2)cc1
IC50 [1]: 660 nM | IC50 [2]: 5900 nM | IC50 [3]: 46 nM

SMILES: Cc1ccc2c(NS(=O)(=O)c3ccccc3Cl)cccc2c1Oc1ncccc1-c1ccnc(N[C@H]2CCCOC2)n1
IC50 [1]: 42 nM | IC50 [2]: 26000 nM | IC50 [3]: > 10000 nM

SMILES: Cc1ccc2c(NS(=O)(=O)C3CCCC3)cccc2c1Oc1ncccc1-c1ccnc(N[C@H]2CCCNC2)n1
IC50 [1]: 3.3 nM | IC50 [2]: 200 nM | IC50 [3]: 13 nM

SMILES: Cc1ccc2c(NS(=O)(=O)CCC(F)(F)F)c(F)ccc2c1Oc1ncccc1-c1ccnc(N[C@H]2CCCNC2)n1
IC50 [1]: 0.39 nM | IC50 [2]: 35 nM | IC50 [3]: 2.1 nM

SMILES: Cc1cc(Oc2ncccc2-c2ccnc(N[C@H]3CCCNC3)n2)c(F)c(F)c1NS(=O)(=O)Cc1ccccc1
IC50 [1]: 0.29 nM | IC50 [2]: 44 nM | Papp A→B at 3 h, 10 µM [6]: 2.8 ×10⁻⁶ cm/s | IC50 [3]: 4.5 nM

Results, then the compound that gave them:

bioavailability [4]: 109% | Vdss [5]: 1.04 L/kg | IC50 [1]: 0.59 nM | IC50 [2]: 22 nM | Papp A→B at 3 h, 10 µM [6]: 7.3 ×10⁻⁶ cm/s | solubility kinetic [7]: 46 µM (≈ 27.7 µg/mL) | IC50 [3]: 7.4 nM | fraction unbound at 4 h [8]: 0.009 | half-life [9]: 1.56 h
SMILES: C[C@@]1(F)CNC[C@@H](Nc2nccc(-c3cccnc3Oc3cc(F)c(NS(=O)(=O)Cc4ccccc4)c(F)c3F)n2)C1

IC50 [1]: 3.1 nM | IC50 [2]: 47 nM | Papp A→B at 3 h, 10 µM [6]: 1.4 ×10⁻⁶ cm/s | IC50 [3]: 4.5 nM
SMILES: O=S(=O)(Cc1ccccc1)Nc1c(F)cc(Oc2ncccc2-c2ccnc(N[C@H]3CCCNC3)n2)c(F)c1F

IC50 [1]: 1.8 nM | IC50 [2]: 330 nM | Papp A→B at 3 h, 10 µM [6]: 2 ×10⁻⁶ cm/s | IC50 [3]: 24 nM
SMILES: Cc1c(Oc2ncccc2-c2ccnc(N[C@H]3CCCNC3)n2)ccc(NS(=O)(=O)Cc2ccccc2)c1F

IC50 [1]: 2.1 nM | IC50 [2]: 310 nM | IC50 [3]: 14 nM
SMILES: Cc1cc(NS(=O)(=O)Cc2ccccc2)c(F)cc1Oc1ncccc1-c1ccnc(N[C@H]2CCCNC2)n1

IC50 [1]: 46 nM | IC50 [2]: 2300 nM | IC50 [3]: 420 nM
SMILES: Cc1ccc2c(NS(=O)(=O)c3ccccc3Cl)cccc2c1Oc1ncccc1-c1ccnc(N[C@@H]2CCCNC2)n1
